We go through eleven compounds from ChEMBL document CHEMBL3745618, “Identification of Non-nucleoside Human Ribonucleotide Reductase Modulators” (J Med Chem, 2015).

Each structure is given as a SMILES string. Non-standard residues stand in square brackets, D forms with d. Residues, ends and D or L forms follow the SMILES beside them. Sar = CNCC(=O)O

Experiment [1] has as its system MDA-MB-231. Kind of experiment: Growth inhibition of human MDA-MB-231 cells assessed as 1-relative growth at 10 uM after 3 days by DNA dye binding assay. Format: functional.
Experiment [2] has as its system MDA-MB-231. Kind of experiment: Growth inhibition of human MDA-MB-231 cells assessed as 1-relative growth at 1 uM after 3 days by DNA dye binding assay. Format: functional.
Experiment [3] is described as follows: Growth inhibition of human HCT116 cells assessed as 1-relative growth at 10 uM after 3 days by DNA dye binding assay. Format: functional, HCT-116.
A short description of experiment [4]: Growth inhibition of human HCT116 cells assessed as 1-relative growth at 1 uM after 3 days by DNA dye binding assay. Format: functional, HCT-116.
Experiment [5] deals with MDA-MB-231. Kind of experiment: Potentiation of gemcitabine-induced cytotoxicity against human MDA-MB-231 assessed as effective dose of gemcitabine at 2.5 uM after 72 hrs MTT assay (reference value: 0.92 uM). Format: functional.
Experiment [6] has as its target T1, Ribonucleoside-diphosphate reductase large subunit (Homo sapiens, UniProt P23921).
T1 sequence (P23921 whole entry): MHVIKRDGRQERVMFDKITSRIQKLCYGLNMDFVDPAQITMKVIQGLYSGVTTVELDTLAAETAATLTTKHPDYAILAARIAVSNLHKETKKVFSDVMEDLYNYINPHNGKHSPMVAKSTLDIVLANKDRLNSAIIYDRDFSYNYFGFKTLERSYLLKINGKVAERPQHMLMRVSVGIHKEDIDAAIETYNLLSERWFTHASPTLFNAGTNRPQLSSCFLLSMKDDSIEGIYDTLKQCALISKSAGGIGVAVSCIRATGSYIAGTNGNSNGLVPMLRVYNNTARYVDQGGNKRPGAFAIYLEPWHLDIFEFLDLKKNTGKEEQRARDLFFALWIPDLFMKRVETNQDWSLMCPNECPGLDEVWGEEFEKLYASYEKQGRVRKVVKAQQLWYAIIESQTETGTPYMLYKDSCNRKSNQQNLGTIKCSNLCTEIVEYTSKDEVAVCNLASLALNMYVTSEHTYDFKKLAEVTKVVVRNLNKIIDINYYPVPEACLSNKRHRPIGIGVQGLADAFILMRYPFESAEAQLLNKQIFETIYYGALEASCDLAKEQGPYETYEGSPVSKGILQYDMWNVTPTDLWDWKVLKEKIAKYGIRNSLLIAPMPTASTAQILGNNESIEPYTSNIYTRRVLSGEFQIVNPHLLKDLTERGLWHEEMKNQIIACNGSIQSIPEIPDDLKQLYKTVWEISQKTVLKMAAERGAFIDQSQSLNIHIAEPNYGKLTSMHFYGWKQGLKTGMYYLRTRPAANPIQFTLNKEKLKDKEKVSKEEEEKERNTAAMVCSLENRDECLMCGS
The experiment can be described thus: Inhibition of human ribonucleotide reductase M1 subunit expressed in Escherichia coli BL21 (DE3) using 14C-ADP as substrate by liquid scintillation counting analysis.

For the compound `CCCCCCCCCCCCCCCC(=O)N[C@@H](CCCCN)C(=O)N[C@@H](CCCCN)C(=O)OC`, the Activity was -0.089 in the experiment on MDA-MB-231 [1], -0.219 in the experiment with MDA-MB-231 [2] and -0.089 in experiment [3].
On to `CC(C)(NC(=O)CN1C(=O)c2ccccc2C1=O)C(=O)NCCCC[C@H](NC(=O)CC(O)(C(F)(F)F)C(F)(F)F)C(=O)O`, for which the figures for the Activity (in the experiment with MDA-MB-231 [1]; with MDA-MB-231 [2]; in experiment [4]) were 0.608, 0.057 and 0.057, respectively.
For the compound `CCCOc1ccc(C(=O)OCCN(CC)CC)cc1NS(=O)(=O)/C=C/c1ccccc1`, the Activity in the experiment with MDA-MB-231 [1] is 0.043; in the experiment on MDA-MB-231 [2] it was -0.033; in experiment [3], 0.043; in experiment [4] it was -0.033.
Take `CCOC(=O)C(NC(=O)CN[C@H]1CCCc2sccc21)C(=O)OCC`: the Activity is recorded as 0.531 in the experiment on MDA-MB-231 [1] and -0.199 in the experiment on MDA-MB-231 [2].
In the case of `CCCCCCCCCCCCCCNC(=O)[C@@H](N)CCN`, the Activity with MDA-MB-231 [1] stood at 0.69; with MDA-MB-231 [2] it was 0.072; in experiment [3], 0.69; in experiment [4] it was 0.072.
For the compound `CCOC(=O)C[C@@H](CC(=O)NCCN[C@H](C)c1ccc(O)c(C(=O)OC)c1)OC(C)=O`, the Activity with MDA-MB-231 [1] came out at 0.096; in the experiment on MDA-MB-231 [2] it was 0.098; in experiment [3], 0.096; in experiment [4], 0.098.
Regarding `CCC(C)(C)c1ccc(OCCCCNC(=O)c2cc(Oc3ccc([N+](=O)[O-])cc3)c3ccccc3c2O)c(C(C)(C)CC)c1`, the Activity worked out at 0.398 with MDA-MB-231 [1], 0.038 in the experiment with MDA-MB-231 [2] and 0.038 in experiment [4].
Turning to `CC(NCCCCCO)c1cc(OCc2ccccc2)cc(OCc2ccccc2)c1` (stereo unspecified), the Activity in the experiment on MDA-MB-231 [1] is on record as 0.036; in the experiment on MDA-MB-231 [2], -0.076; in experiment [3] it was 0.036; in experiment [4], -0.076.
For `OC(COc1ccc(OCC(O)CN2CCN(C3c4ccccc4-c4ccccc43)CC2)cc1)CN1CCN(C2c3ccccc3-c3ccccc32)CC1` (stereo unspecified), the Activity in the experiment on MDA-MB-231 [1] is recorded as 0.88; with MDA-MB-231 [2] it was -0.396; in experiment [3], 0.88. Moreover, the ED with MDA-MB-231 [5] was determined as 0.1 µM.
`CNCC(=O)N[C@@H](CCCNC(=N)N)C(=O)N[C@H](C(=O)N[C@@H](Cc1ccc(O)cc1)C(=O)N[C@H](C(=O)N[C@@H](Cc1cnc[nH]1)C(=O)O)C(C)C)C(C)C` (H-[Sar]RVYVH-OH): the Activity with MDA-MB-231 [1] stood at 0.158; in the experiment with MDA-MB-231 [2] it was 0.108; in experiment [3], 0.158; in experiment [4], 0.108.
In experiment [6], `NC(=O)NO` [HYDROXYUREA] registered an IC50 of 997 µM.

A word on the IC50: it is the point on the concentration scale where inhibition reaches its midpoint. A low value points to higher potency.
